Source: patent US6780870B2, “Pyrimidine derivatives as selective inhibitors of COX-2” (SmithKline Beecham Corporation, priority 2000, dated 2004)

Columns and labels:
[1] = target: T1, human COX-1 (Homo sapiens, UniProt P23219); test: Inhibition of PGE2 release in COS cells stably transfected with human COX-1; assay type: cell-based; conditions: COS cells stably transfected with cDNA for human COX-1; PGE2 release by enzyme immunoassay; 1 hour preincubation; 30 μM arachidonic acid, 15 minutes
T1 construct: expressed in transfected cells
Description: (§1) Inhibitory activity against human COX-1 and COX-2 was assessed in COS cells which had been stably transfected with cDNA for human COX-1 and human COX-2. 24 Hours prior to experiment, COS cells were transferred from the 175 cm^2 flasks in which they were grown, onto 24-well cell culture plates using the following procedure. The incubation medium (Dulbecco's modified eagles medium (DMEM) supplemented with heat-inactivated foetal calf serum (10% v/v), penicillin (100 IU/ml), streptomycin (100 μg/ml) and geneticin (600 μg/ml)) was removed from a flask of confluent cells (1 flask at confluency contains approximately 1×10^7 cells). 10 ml of phosphate buffered saline (PBS) was added to the flask to wash the cells. Having discarded the PBS, cells were then rinsed in 10 ml trypsin for 20 seconds, after which the trypsin was removed and the flask placed in an incubator (37°) for 1-2 minutes until cells became detached from the flask. The flask was then removed from the incubator and cells resuspended in 10 ml of fresh incubation medium. The contents of the flask was transferred to a 250 ml sterile container and the volume of incubation medium subsequently made up to 100 ml. 1 ml cell suspension was pipetted into each well of 4×24-well cell culture plates. The plates were then placed in an incubator (37° C., 95% air/5% CO2) overnight. If more than 1 flask of cells were required, the cells from the individual flasks were combined before being dispensed into the 24-well plates.
(§2) Following the overnight incubation, the incubation medium was completely removed from the 24-well cell culture plates and replaced with 250 μl fresh DMEM (37° C.). The test compounds were made up to 250× the required test concentration in DMSO and were added to the wells in a volume of 1 μl. Plates were then mixed gently by swirling and then placed in an incubator for 1 hour (37° C., 95% air/5% CO2). […] Plates were then incubated for a further 15 minutes, after which the incubation medium was removed from each well of the plates and stored at −20° C., prior to determination of prostaglandin E2 (PGE2) levels using enzyme immunoassay. […] The selectivity ratio of inhibition of COX-1 versus COX-2 was calculated by comparing respective IC50 values.

[2] = target: T2, human COX-2 (Homo sapiens, UniProt P35354); test: Inhibition of PGE2 release in COS cells stably transfected with human COX-2; assay type: cell-based; conditions: COS cells stably transfected with cDNA for human COX-2; PGE2 release by enzyme immunoassay; 1 hour preincubation; 30 μM arachidonic acid, 15 minutes
T2 construct: expressed in transfected cells
T2 sequence (P35354 18-604): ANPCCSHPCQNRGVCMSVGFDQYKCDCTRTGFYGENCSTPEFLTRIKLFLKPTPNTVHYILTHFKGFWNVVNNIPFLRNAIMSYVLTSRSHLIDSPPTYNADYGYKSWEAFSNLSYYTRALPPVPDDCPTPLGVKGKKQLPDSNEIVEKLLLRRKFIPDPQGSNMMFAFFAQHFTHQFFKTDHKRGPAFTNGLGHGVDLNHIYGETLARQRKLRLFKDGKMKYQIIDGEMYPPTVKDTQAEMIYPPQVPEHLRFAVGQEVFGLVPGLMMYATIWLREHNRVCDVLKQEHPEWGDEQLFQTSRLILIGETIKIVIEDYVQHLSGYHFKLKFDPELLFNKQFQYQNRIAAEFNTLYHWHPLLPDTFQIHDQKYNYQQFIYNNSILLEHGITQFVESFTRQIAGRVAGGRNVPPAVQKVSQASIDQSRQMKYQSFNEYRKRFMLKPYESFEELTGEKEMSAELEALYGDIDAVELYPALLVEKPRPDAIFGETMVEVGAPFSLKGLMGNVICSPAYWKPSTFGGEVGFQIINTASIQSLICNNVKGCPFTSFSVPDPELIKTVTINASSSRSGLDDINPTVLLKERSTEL
Description: as §1, §2

T1 sequence (P23219 24-599): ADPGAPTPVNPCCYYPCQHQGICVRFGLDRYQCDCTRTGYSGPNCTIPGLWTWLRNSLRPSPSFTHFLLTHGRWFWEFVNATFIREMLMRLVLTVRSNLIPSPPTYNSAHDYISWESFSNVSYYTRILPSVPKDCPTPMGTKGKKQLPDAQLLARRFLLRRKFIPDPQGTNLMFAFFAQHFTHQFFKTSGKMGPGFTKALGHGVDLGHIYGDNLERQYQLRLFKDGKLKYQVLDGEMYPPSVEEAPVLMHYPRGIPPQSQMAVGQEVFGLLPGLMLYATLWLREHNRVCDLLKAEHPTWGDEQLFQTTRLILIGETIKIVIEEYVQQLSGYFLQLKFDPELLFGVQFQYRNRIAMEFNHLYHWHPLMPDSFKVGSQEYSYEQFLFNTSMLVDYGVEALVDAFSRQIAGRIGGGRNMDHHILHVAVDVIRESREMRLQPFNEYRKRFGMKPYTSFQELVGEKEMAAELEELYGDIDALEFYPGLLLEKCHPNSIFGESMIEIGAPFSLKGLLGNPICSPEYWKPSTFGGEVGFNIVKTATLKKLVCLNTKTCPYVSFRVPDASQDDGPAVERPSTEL

| SMILES | IC50 [1] [µM] | IC50 [2] [µM] |
| --- | --- | --- |
| COc1ccc(CNc2nc(-c3ccc(S(C)(=O)=O)cc3)cc(C(F)(F)F)n2)cc1 [Example 9, N-(4-methoxybenzyl)-4-[4-(methylsulfonyl)phenyl]-6-(trifluoromethyl)pyrimidin-2-amine] | > 100 | 0.034 |
| CS(=O)(=O)c1ccc(-c2cc(C(F)(F)F)nc(NCc3ccccn3)n2)cc1 [Example 3, 4-[4-(Methylsulfonyl)phenyl]-N-(pyridin-2-ylmethyl)-6-(trifluoromethyl)pyrimidin-2-amine] | > 100 | 0.0025 |

Next, values leading:

| IC50 [1] [µM] | IC50 [2] [µM] | SMILES |
| --- | --- | --- |
| > 100 | 0.0108 | CS(=O)(=O)c1ccc(-c2cc(C(F)(F)F)nc(NCc3cccnc3)n2)cc1 [Example 2, 4-[4-(Methylsulfonyl)phenyl]-N-(pyridin-3-ylmethyl)-6-(trifluoromethyl)pyrimidin-2-amine] |
| > 100 | 0.00025 | CS(=O)(=O)c1ccc(-c2cc(C(F)(F)F)nc(NCc3ccccc3)n2)cc1 [Example 4, 4-[4-(Methylsulfonyl)phenyl]-N-(phenylmethyl)-6-(trifluoromethyl)-2-pyrimidinamine] |
| > 100 | 0.0013 | CS(=O)(=O)c1ccc(-c2cc(C(F)(F)F)nc(NCc3ccncc3)n2)cc1 [Example 1, 4-[4-(Methylsulfonyl)phenyl]-N-(pyridin-4-ylmethyl)-6-(trifluoromethyl)pyrimidin-2-amine] |
